# Data from patent publication US20250325566A1, “C[…]-9-TETRAHYDROCANNABINOL AND TERPENES” (Vertanical GmbH, priority 2022, published 2025).
# Test system: different cancer cell lines (MCF-7, HCT-116, CaCO2)
# Assay: MTT cytotoxicity assay, single substances vs combination, different cancer cell lines
# Format: cell-based
# Details: THC + alpha-bisabolol + guaiol vs single substance, 48 h
# Experimental: The following cell lines were used for the experiment: CaCO2 (Pharmacelsus), HCT-116 (ATCC, Cat #CCL-247), and MCF-7 (ECACC, Cat #86012803). All cell lines were maintained at 37° C., 5% CO2 and 95% humidity. The medium was replaced three times per week and the monolayer was sub-cultured in a ratio of 1:5 when the culture reaches a confluence of 80%. The specific cultivation medium for each cell line was as follows: CaCO2 cell line was cultured in DMEM (PAN-Biotech, Cat #P04-03500) supplemented with 10% FBS Good (PAN-Biotech, Cat #P40-37500) and 1% NEAA (PAN-Biotech, Cat #P08-32100), HCT-116 cell line was cultured in McCoy's A5 medium (PAN-Biotech, Cat #P04-05500) supplemented with 10% FBS Good, and MCF-7 cell line was cultured in RPMI 1640 (PAN-Biotech, Cat #P04-16500) supplemented with 10% FBS and 2 mM GlutaMAX (Gibco, Cat #35050). All cell culture media were routinely supplemented with 1% Penicillin/Streptomycin (PAN-Biotech, Cat #P06-07100).
# For the cytotoxicity assay, cells were seeded into 96-well flat bottom microtiter plates at a density of 10,000 cells/well and allowed to attach to the plate for 24 hours before the start of the experiment. […]
# Quantification of viable cells was performed by using commercial MTT assay kit (Cell Proliferation Kit I (MTT), Sigma, Cat #11465007001). […] The formazan crystals formed are solubilized and the resulting coloured solution is quantified.
# Cells were prepared as described in Example 1.1. […] Conversion of MTT to formazan was recorded by measuring the absorbance at 570 nm with reference wavelength 650 nm by using a spectrophotometer (Spectramax Plus, Molecular Devices). […]
row,SMILES,IC50 values in combinatory treatment compared to single treatment
1,"CCCCCc1cc(O)c2c(c1)OC(C)(C)[C@@H]1CCC(C)=C[C@@H]21 [THC, delta-9-tetrahydrocannabinol]",remain unchanged
2,CC(C)=CCC[C@](C)(O)[C@@H]1CC=C(C)CC1 [alpha-bisabolol],remarkably reduced
3,C[C@H]1CC[C@@H](C(C)(C)O)CC2=C1CC[C@@H]2C [guaiol],remarkably reduced
